# From ChEMBL document CHEMBL1201862, “PubChem BioAssay data set” (2004)
# Calls of active or inactive are those of the source.
# Key:
# [1] = HEp-2 cell cytotoxicity, dose response, cytotoxicity control for RSV inhibitor project, HTS (AID 2410); format: functional; settings: human respiratory syncytial virus
# cells [2] = format: functional, cell-based
# Vero [3] = test: cells; format: functional, cell-based; settings: Chlorocebus sabaeus
# cells [4] = test: cells
# [5] = biological target: Peroxisome proliferator-activated receptor gamma/Nuclear receptor coactivator 1 (Homo sapiens, UniProt P37231); test: (§1) TR-FRET dose response biochemical High Throughput Screening assay for agonists of the steroid receptor coactivator 1 (SRC-1) recruitment by the peroxisome proliferator-activated receptor gamma (PPAR gamma): non-selective agonists. [Related pubchem assays (depositor defined):AID1300, AID1808, AID504735, AID631]; format: protein assay
# [6] = biological target: Peroxisome proliferator-activated receptor gamma/Nuclear receptor coactivator 3 (Homo sapiens, UniProt P37231); test: as §1, with “3 (SRC-3)” for “1 (SRC-1)”, “assays: 1301 (Confirmation screen.), 1048 (Primary screen.)]” for “assays (depositor defined):AID1300, AID1808, AID504735, AID631]”; format: functional
# [7] = biological target: Peroxisome proliferator-activated receptor gamma/Nuclear receptor coactivator 2 (Homo sapiens, UniProt P37231); test: TR-FRET dose response biochemical High Throughput Screening assay for agonists of the steroid receptor coactivator 2 (SRC-2) recruitment by the peroxisome proliferator-activated receptor gamma (PPAR gamma): non-selective agonists. [Related pubchem assays: 1297, 1032 ]; format: functional
# CHO-K1 = test: (§2) Counterscreen for antagonists of the orexin 1 receptor (OX1R; HCRTR1): Homogeneous time resolved fluorescence (HTRF)-based cell-based dose response assay to identify antagonists of the parental CHO-K1 cell line. [Related pubchem assays (depositor defined):AID434989, AID435008, AID463079, AID485270, AID492963, AID492964, AID492965, AID493232, AID504699, AID504701]; format: functional; settings: Cricetulus griseus
# [8] = as §2, with “Fluorescence-based” for “Homogeneous time resolved fluorescence (HTRF)-based”, “cell-based high throughput” for “cell-based”, “CHO” for “CHO-K1”; format: functional
# [9] = biological target: T1, Orexin/Hypocretin receptor type 1 (Homo sapiens, UniProt O43613); test: Homogeneous Time Resolved Fluorescence (HTRF)-based cell-based high throughput dose response assay for antagonists of the orexin 1 receptor (OX1R; HCRTR1). [Related pubchem assays (depositor defined):AID434989, AID435008, AID463079, AID485270, AID492963, AID492964, AID492965, AID493232, AID504717, AID504718]; format: functional
# T1 sequence (O43613 whole entry): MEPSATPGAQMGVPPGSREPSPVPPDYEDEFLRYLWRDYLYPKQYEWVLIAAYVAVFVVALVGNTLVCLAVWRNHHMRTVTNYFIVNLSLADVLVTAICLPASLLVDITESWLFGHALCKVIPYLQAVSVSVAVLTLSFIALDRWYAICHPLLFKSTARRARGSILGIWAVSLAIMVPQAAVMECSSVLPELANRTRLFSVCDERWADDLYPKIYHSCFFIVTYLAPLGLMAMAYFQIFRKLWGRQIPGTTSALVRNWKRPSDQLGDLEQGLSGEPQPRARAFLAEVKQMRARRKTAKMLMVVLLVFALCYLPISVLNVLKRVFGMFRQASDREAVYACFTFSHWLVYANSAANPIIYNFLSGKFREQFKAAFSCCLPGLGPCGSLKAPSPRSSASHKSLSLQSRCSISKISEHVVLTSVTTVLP
# [10] = biological target: T1, Orexin/Hypocretin receptor type 1; test: Fluorescence-based cell-based high throughput dose response assay for antagonists of the orexin 1 receptor (OX1R; HCRTR1). [Related pubchem assays (depositor defined):AID434989, AID435008, AID463079, AID485270, AID492963, AID492964, AID492965, AID493232, AID504717, AID504718]; format: functional
# Orexin receptor type 2 [11] = biological target: T2, Orexin receptor type 2 (Homo sapiens, UniProt O43614); test: Counterscreen assay for antagonists of the orexin 1 receptor (OX1R; HCRTR1): Fluorescence-based cell-based dose response assay for antagonists of the orexin 2 receptor (OX2R; HCRTR2), run by assay provider.; format: functional
# T2 sequence (O43614 whole entry): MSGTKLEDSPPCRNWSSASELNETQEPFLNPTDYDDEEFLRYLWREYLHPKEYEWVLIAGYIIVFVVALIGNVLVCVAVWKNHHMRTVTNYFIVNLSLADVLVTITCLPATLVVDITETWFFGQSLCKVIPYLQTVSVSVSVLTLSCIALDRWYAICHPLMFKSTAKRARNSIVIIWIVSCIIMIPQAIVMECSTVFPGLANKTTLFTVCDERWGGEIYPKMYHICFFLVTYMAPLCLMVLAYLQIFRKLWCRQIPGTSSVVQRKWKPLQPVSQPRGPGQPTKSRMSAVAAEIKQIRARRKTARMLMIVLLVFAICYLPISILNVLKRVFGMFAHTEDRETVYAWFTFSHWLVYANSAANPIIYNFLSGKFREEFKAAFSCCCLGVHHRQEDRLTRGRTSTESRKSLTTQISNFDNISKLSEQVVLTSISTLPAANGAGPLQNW
# Orexin receptor type 2 [12] = biological target: T2, Orexin receptor type 2; test: Counterscreen assay for antagonists of the orexin 1 receptor (OX1R; HCRTR1): Homogeneous Time Resolved Fluorescence (HTRF)-based cell-based dose response assay for antagonists of the orexin 2 receptor (OX2R; HCRTR2), run by assay provider.; format: functional
# Cytochrome P450 2C9 = Cytochrome P450 2C9 (Homo sapiens, UniProt P11712)
# HEK293 [13] = test: NOD1 signaling inhibitors, primary screen, cell-based, luminescence, uHTS (AID 1578); format: functional; settings: Homo sapiens
# HEK293 [14] = test: cells; format: functional, cell-based; settings: Homo sapiens
# HEK293 [15] = test: cells; format: functional, cell-based; settings: Homo sapiens; remark: listed apart in the source
# [16] = biological target: Nucleotide-binding oligomerization domain-containing protein 2 (Homo sapiens, UniProt Q9HC29); test: NOD2 signaling inhibitors, cell-based, luminescence, uHTS, HEK293 (AID 1566); format: functional
# HEK293 [17] = test: NOD2 signaling inhibitors in MDP-stimulated cells, cell-based, uHTS, luminescence (AID 2001); format: functional; settings: Homo sapiens
# HEK293 [18] = test: cells; format: functional, cell-based; settings: Homo sapiens; remark: listed apart in the source
# Cytochrome P450 3A4 = Cytochrome P450 3A4 (Homo sapiens, UniProt P08684);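 also: CYP3A4 tested as one member of a cytochrome P450 panel screen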
# [19] = biological target: DNA dC->dU-editing enzyme APOBEC-3A (Homo sapiens, UniProt P31941); test: Dose Response confirmation of small molecule APOBEC3A DNA Deaminase Inhibitors via a fluorescence-based single-stranded DNA deaminase assay. [Related pubchem assays (depositor defined):AID493011, AID493024]; format: functional
# [20] = biological target: DNA dC->dU-editing enzyme APOBEC-3G (Homo sapiens, UniProt Q9HC16); format: functional;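 also: Dose-response counterscreen measuring inhibition of APOBEC3G DNA deaminase activity, run while confirming APOBEC3A inhibitors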
# [21] = inhibitors of intracellular T. cruzi replication, confirmation, NIH3T3 host cells, beta-gal luminescence (AID 2044); format: functional, cell-based;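 also: intracellular parasites grown in NIH/3T3 mouse fibroblasts as host cells; luminescent beta-galactosidase reporter signal from transgenic T. cruzi replicating inside host cells; inhibitors lower the luminescence signal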
# [22] = cytotoxicity toward NIH3T3 fibroblasts, dose response, counter-screen, cell-based, ATP luminescence, mouse fibroblasts (AID 2010); format: functional;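 also: cells exposed to compound for about 90 hours before reading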
# Vero [23] = test: cells; format: functional; settings: Chlorocebus sabaeus
# Cytochrome P450 2C19 = Cytochrome P450 2C19 (Homo sapiens, UniProt P33261); test: Cytochrome panel assay with activity outcomes. Panel member name: p450-cyp2c19 Compounds with AC50 equal or less than 10 uM are considered active; format: functional; settings: read-out: AC50
# [24] = THP-1 cell cytotoxicity, dose response, cytotoxicity control for non-replicating M. tuberculosis project (AID 489025); format: functional
# [25] = Vero E6 cell cytotoxicity, dose response, cytotoxicity control for non-replicating M. tuberculosis project, secondary assay (AID 492998); format: functional, VeroE6; settings: Vero C1008
# [26] = biological target: T3, Microphthalmia-associated transcription factor (Homo sapiens, UniProt O75030); test: TRPM1 promoter luciferase signal decrease, dose response, MITF inhibitor project, cell-based, SK-MEL-5, cherry-picked, set 3 (AID 493073); format: functional
# T3 sequence (O75030 whole entry): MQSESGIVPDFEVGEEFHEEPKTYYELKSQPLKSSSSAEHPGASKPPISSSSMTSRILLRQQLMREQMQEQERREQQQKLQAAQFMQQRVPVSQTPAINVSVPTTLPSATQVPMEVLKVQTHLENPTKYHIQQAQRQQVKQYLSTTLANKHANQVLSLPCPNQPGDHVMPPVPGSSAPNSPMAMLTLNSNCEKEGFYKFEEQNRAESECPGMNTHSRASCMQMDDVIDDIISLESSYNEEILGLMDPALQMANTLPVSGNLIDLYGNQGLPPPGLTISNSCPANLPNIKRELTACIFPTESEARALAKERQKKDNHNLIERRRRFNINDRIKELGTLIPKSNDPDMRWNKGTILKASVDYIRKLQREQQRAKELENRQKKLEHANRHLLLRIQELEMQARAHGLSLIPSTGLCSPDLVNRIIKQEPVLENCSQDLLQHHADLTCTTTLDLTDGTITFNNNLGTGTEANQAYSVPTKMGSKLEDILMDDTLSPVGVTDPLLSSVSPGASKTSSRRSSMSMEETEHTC
# cells [27] = format: functional
# [28] = miR-122 activators in hepatoma reporter cells, dose response, cell-based, Huh7 psiCHECK-miR122, Renilla luciferase, cherry-picked (AID 651956); format: functional;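 also: huh7 hepatoma cells stably carrying a psiCHECK-2 miR-122 sensor plasmid; renilla luciferase signal reporting endogenous miR-122 activity after 48 h compound exposure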
# [29] = biological target: FAD-linked sulfhydryl oxidase ALR (Homo sapiens, UniProt P55789); test: inhibitors of human ALR sulfhydryl oxidase, dose response, biochemical, H2O2 detection, luminescence, cherry-pick (AID 493248)
# Cytochrome P450 2D6 = Cytochrome P450 2D6 (Homo sapiens, UniProt P10635);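 also: CYP2D6 member of a cytochrome P450 panel assay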
# Cytochrome P450 2D6, sequence (P10635 whole entry): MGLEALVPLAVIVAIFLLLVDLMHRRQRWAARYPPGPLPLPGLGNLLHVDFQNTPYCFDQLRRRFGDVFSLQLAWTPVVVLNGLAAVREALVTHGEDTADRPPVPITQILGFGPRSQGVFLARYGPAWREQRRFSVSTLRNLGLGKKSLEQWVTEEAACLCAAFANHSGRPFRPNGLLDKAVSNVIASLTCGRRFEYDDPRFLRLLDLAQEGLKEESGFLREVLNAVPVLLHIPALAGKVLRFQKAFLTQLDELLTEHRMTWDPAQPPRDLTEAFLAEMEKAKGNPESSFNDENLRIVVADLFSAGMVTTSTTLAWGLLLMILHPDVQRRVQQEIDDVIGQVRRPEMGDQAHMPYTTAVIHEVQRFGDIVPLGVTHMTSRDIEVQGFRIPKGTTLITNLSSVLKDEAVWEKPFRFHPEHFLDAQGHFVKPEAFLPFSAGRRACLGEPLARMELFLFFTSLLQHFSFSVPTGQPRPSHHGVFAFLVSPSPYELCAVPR
# DNA dC->dU-editing enzyme APOBEC-3A, sequence (P31941 whole entry): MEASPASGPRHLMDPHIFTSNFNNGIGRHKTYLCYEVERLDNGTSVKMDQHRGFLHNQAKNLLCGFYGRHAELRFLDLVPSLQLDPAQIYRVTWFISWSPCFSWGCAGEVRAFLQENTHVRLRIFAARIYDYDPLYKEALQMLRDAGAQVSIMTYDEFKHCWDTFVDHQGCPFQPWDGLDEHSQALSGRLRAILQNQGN
# DNA dC->dU-editing enzyme APOBEC-3G, sequence (Q9HC16 whole entry): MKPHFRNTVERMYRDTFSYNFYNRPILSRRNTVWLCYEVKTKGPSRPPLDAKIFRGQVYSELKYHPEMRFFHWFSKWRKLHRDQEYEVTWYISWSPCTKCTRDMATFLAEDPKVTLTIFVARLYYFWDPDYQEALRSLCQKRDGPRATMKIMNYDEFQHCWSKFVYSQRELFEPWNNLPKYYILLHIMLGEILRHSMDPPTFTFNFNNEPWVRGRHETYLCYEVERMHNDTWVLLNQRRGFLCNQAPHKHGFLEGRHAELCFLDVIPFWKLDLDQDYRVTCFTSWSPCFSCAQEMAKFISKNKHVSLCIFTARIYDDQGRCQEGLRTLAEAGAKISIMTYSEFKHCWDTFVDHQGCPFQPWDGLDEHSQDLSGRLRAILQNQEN
# Cytochrome P450 2C9, sequence (P11712 whole entry): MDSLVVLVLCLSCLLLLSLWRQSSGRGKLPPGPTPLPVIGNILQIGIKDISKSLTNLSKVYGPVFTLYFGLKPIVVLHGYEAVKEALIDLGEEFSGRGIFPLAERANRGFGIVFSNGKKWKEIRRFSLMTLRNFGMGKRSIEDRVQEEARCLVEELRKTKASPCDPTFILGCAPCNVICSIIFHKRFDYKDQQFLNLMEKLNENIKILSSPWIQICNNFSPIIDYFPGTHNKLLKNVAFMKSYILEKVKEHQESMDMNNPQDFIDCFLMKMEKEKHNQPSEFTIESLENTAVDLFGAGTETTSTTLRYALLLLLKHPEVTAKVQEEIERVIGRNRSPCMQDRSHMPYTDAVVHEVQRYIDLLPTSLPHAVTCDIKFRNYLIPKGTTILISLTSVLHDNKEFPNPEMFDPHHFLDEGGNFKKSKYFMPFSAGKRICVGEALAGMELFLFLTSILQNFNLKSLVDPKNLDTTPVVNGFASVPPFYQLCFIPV
# Cytochrome P450 2C19, sequence (P33261 whole entry): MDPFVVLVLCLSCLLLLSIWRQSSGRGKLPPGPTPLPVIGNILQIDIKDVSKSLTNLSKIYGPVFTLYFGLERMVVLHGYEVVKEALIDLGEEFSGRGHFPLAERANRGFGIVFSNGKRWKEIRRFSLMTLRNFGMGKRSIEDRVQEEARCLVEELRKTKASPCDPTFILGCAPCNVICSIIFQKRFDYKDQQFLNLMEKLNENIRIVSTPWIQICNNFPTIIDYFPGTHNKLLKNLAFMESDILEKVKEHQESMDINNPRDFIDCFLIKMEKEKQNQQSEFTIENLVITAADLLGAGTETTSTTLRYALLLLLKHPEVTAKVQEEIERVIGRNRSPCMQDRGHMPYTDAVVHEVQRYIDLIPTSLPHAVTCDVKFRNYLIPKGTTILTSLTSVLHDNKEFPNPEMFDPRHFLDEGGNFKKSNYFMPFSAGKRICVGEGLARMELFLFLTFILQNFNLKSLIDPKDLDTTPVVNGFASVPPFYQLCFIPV
# Cytochrome P450 3A4, sequence (P08684 whole entry): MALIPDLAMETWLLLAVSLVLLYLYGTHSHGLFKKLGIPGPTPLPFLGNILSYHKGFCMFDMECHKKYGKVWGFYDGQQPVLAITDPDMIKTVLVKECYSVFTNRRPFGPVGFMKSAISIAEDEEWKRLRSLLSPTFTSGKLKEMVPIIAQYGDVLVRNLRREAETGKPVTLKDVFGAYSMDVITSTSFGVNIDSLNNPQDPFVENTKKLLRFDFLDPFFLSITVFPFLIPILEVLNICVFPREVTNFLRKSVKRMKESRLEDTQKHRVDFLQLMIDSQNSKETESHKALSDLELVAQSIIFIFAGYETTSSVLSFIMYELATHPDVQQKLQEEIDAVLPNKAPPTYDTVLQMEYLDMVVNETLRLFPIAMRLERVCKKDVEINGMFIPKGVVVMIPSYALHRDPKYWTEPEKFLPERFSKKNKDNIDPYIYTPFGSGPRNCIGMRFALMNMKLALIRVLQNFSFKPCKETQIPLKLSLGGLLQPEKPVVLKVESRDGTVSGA
# Peroxisome proliferator-activated receptor gamma/Nuclear receptor coactivator 3, sequence (P37231 whole entry): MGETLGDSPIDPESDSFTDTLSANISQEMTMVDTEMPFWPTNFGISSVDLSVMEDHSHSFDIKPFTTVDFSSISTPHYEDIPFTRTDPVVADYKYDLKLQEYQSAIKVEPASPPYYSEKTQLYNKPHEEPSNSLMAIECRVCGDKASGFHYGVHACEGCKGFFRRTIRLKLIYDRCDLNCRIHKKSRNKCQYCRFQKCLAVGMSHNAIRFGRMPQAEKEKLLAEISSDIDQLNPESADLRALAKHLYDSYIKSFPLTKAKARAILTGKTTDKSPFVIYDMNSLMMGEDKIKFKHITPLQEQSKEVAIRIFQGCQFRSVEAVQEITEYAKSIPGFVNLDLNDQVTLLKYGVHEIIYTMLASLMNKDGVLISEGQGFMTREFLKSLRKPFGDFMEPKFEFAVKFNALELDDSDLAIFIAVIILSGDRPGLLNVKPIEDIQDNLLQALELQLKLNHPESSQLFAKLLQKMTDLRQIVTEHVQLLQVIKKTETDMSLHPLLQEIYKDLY
# Peroxisome proliferator-activated receptor gamma/Nuclear receptor coactivator 3, sequence (Q9Y6Q9 whole entry, further chain): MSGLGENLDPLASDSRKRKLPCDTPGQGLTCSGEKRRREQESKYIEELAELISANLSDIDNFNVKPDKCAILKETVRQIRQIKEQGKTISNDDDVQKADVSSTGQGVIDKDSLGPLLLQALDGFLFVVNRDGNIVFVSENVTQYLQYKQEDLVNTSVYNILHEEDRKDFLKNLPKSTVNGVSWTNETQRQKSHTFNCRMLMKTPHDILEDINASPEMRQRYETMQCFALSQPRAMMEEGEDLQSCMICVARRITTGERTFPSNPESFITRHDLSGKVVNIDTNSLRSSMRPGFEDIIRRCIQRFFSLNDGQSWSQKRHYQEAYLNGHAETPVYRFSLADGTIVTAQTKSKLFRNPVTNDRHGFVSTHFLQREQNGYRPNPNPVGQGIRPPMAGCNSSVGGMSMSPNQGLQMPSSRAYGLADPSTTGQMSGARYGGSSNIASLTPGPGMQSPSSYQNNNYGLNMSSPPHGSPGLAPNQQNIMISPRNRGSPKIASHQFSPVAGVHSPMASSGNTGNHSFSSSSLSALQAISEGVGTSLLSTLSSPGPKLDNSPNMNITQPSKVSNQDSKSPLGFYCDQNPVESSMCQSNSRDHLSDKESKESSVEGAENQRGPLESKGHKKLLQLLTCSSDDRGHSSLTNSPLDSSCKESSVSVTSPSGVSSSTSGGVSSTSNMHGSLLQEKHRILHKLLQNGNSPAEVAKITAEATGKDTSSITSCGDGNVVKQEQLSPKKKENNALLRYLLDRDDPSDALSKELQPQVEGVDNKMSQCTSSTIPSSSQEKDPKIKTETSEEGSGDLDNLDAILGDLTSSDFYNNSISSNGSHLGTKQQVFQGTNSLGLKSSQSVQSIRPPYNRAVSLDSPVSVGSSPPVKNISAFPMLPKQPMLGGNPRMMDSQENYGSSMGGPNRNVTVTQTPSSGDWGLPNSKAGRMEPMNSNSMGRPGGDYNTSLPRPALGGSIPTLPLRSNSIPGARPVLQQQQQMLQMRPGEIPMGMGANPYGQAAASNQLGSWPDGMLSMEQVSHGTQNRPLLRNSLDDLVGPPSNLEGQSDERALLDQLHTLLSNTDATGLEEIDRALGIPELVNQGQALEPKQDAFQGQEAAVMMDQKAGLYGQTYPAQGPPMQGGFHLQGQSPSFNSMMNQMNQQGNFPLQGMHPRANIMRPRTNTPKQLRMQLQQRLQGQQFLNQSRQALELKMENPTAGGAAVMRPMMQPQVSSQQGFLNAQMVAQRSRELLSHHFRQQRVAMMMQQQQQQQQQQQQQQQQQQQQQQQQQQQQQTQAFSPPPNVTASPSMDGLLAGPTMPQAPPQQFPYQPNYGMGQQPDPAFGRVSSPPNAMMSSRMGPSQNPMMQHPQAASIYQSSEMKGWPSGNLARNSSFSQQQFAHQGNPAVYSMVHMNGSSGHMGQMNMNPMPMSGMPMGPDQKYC
# FAD-linked sulfhydryl oxidase ALR, sequence (P55789 whole entry): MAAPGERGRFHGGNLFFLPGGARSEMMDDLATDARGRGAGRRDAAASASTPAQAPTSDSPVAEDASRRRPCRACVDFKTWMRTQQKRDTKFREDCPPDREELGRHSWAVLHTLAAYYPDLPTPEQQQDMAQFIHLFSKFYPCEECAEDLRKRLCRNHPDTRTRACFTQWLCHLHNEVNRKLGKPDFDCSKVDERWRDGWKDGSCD
smiles,measurement,setting,value
Cc1ccc2c(c1)cc(C(=O)NCc1ccccc1)n2C,CC50,[1],44.9 µM (active)
same,EC50,cells [2],> 350 µM (not active)
same,IC50,Vero [3],17.8 µM (active)
same,IC50,cells [4],24 µM (active)
Cc1cc(SCC(=O)c2ccc3c(c2)OCO3)nc2ccccc12,EC50,[5],10.2 µM (inactive)
same,EC50,[6],> 79.4 µM (not active)
same,EC50,[7],10.4 µM (not active)
same,IC50,CHO-K1,> 66.2 µM (inactive)
same,IC50,[8],> 49.7 µM (inactive)
same,IC50,[9],3.34 µM (active)
same,IC50,[10],18.8 µM (inactive)
same,IC50,Orexin receptor type 2 [11],14.1 µM (inactive)
same,IC50,Orexin receptor type 2 [12],11.2 µM (inactive)
CNc1nc(-c2ccc(N(C)C)cc2)nc2ccccc12,AC50,Cytochrome P450 2C9,inconclusive
CC[C@]12c3[nH]c4cc(-c5ccco5)ccc4c3CCN1C(=O)[C@@H](CC(=O)NC/C=C(\C)CCC=C(C)C)C[C@@H]2C(=O)N1CCN(C(=O)c2ccco2)CC1,IC50,CHO-K1,> 66.2 µM (inactive)
same,IC50,[8],> 49.8 µM (inactive)
same,IC50,[9],1.07 µM (active)
same,IC50,[10],3.23 µM (active)
same,IC50,Orexin receptor type 2 [11],39.5 µM (inactive)
same,IC50,Orexin receptor type 2 [12],2.05 µM (active)
Cc1c(Nc2c3ccccc3nc3ccccc23)c(=O)n(-c2ccccc2)n1C,EC50,HEK293 [13],> 20 µM (inactive)
same,IC50,HEK293 [14],> 20 µM (inactive)
same,IC50,HEK293 [15],> 20 µM (inactive)
same,EC50,[16],> 20 µM (inactive)
same,IC50,HEK293 [17],> 20 µM (inactive)
same,IC50,HEK293 [18],> 20 µM (inactive)
CN1CCN(c2ncncc2-c2ccc(N(C)C)cc2)CC1,AC50,Cytochrome P450 3A4,2 µM (inconclusive)
same,AC50,Cytochrome P450 2C9,inconclusive
C[N+]1(CCOC(=O)C2(c3ccccc3)CCCC2)CCCCC1,IC50,[19],3.89 µM (active)
same,IC50,[20],3.57 µM (active)
COc1ccccc1Nc1ncnc2c1c(C)c(C)n2CCCN(C)C,EC50,[21],0.156 µM (active)
same,EC50,[22],4.51 µM (active)
same,IC50,Vero [3],23.2 µM (active)
same,CC50,Vero [23],> 25 µM (active)
COc1cc(NC(=O)C2CCN(S(=O)(=O)c3cccc4nonc34)CC2)cc(OC)c1,AC50,Cytochrome P450 2C19,15.8 µM (inconclusive)
same,AC50,Cytochrome P450 2C9,inconclusive
CCOc1ccccc1-n1nnnc1SCC(=O)Nc1cc(C)on1,AC50,Cytochrome P450 3A4,3.98 µM (inconclusive)
same,AC50,Cytochrome P450 2C9,inconclusive
Cc1ccc(-n2nnnc2CNC(=O)c2ccc([N+](=O)[O-])o2)cc1C,EC50,[21],0.145 µM (active)
same,EC50,[22],> 30 µM (not active)
same,CC50,[24],22.5 µM (active)
same,CC50,[25],12.1 µM (active)
same,AC50,[26],9.72 µM (active)
same,IC50,cells [27],8.5 µM (active)
CCCN(CCC)CCNC(=O)C1CCN(Cc2nc(-c3ccc(Cl)cc3)oc2C)CC1,IC50,Vero [3],10.8 µM (active)
same,CC50,Vero [23],> 25 µM (active)
Cc1ccccc1N(CC(=O)NC1CCCC1)C(=O)c1oc(C(C)(C)C)cc1C,IC50,CHO-K1,> 66.2 µM (inactive)
same,IC50,[8],> 49.8 µM (inactive)
same,IC50,[9],0.264 µM (active)
same,IC50,[10],3.52 µM (active)
same,IC50,Orexin receptor type 2 [11],> 88.8 µM (inactive)
same,IC50,Orexin receptor type 2 [12],> 50 µM (inactive)
C[N+](C)(C)c1ccccc1,IC50,[19],2.16 µM (active)
same,IC50,[20],3.33 µM (active)
CN1CCN(S(=O)(=O)c2ccc(C3CCCCC3)cc2)CC1,IC50,[19],9.2 µM (active)
same,IC50,[20],16.8 µM (active)
CN1C(=O)c2cc(NC(=O)c3cccc(F)c3)ccc2OC[C@H]2O[C@H](CC(=O)O)CC[C@H]21,AC50,[28],0.366 µM (active)
OCc1ccc(-c2nn(Cc3ccccc3)c3ccccc23)o1,AC50,[29],10 µM (active)
same,AC50,Cytochrome P450 2C19,10 µM (inconclusive)
same,AC50,[28],0.547 µM (active)
same,AC50,Cytochrome P450 2D6,39.8 µM (inconclusive)
